Reference: US6436874B1, “Synergistic herbicidal agents based on leaf herbicides containing phosphorus, imidazolinones and hormone weed killers” (priority 1998, dated 2002)
Structures can show the parent of a compound that is named as a salt. Where two headings read alike, the source gives them in different places.

Experiments:
Assay type in all cases: in vivo
[1] = system: Brachiaria mutica, Digitaria horizontalis, Panicum maximum, Echinochloa colona and Ageratum conyzoides; experiment: Field trial, herbicidal activity against weeds in sugar cane plantation
Method: In an oil palm plantation, the economically important tropical weed Hedyotis verticillata was grown on plots of the dimensions 2×5 m under natural outdoor conditions and treated with the herbicides A1.2, B1 and C1 or their mixtures in a tank mix under standard conditions using a plot sprayer, at a water application rate of 450 liters of water per hectare (over-the-top application to the weeds; plant density initially more than 95% ground coverage). At intervals of 1, 2, 3, 4, 5, 6, 7 and 8 weeks after the application, the herbicidal efficacy of the active compounds or active compound mixtures was evaluated visually on the basis of the treated plots, in comparison with untreated control plots. The damage to and development of all above-ground parts of the plants were recorded. […]
In a sugar cane plantation, plots with the weeds Brachiaria mutica, Digitaria horizontalis, Panicum maximum, Echinochloa colona and Ageratum conyzoides were grown under natural outdoor conditions (dimensions of the plots 2×5 m). […] Four weeks after the application, the herbicidal efficacy of the active compounds or their mixtures was evaluated visually on the basis of the treated plots, in comparison with untreated control plots. The damage to and development of all above-ground parts of the plants were recorded. […]

Hedyotis verticillata = experiment: Field trial, herbicidal activity against Hedyotis verticillata in oil palm plantation; conditions: Scleromitrion verticillatum; for inhibition at 25 g/ha: read-out: Herbicidal activity (%), w. after appl., No. 11, dose 25 g of AS/ha; for inhibition at 50 g/ha: read-out: Herbicidal activity (%), w. after appl., No. 12, dose 50 g of AS/ha; for inhibition at 80 g/ha: read-out: Herbicidal activity (%), w. after appl., No. 13, dose 80 g of AS/ha
Method: (§1) In an oil palm plantation, the economically important tropical weed Hedyotis verticillata was grown on plots of the dimensions 2×5 m under natural outdoor conditions and treated with the herbicides A1.2, B1 and C1 or their mixtures in a tank mix under standard conditions using a plot sprayer, at a water application rate of 450 liters of water per hectare (over-the-top application to the weeds; plant density initially more than 95% ground coverage). At intervals of 1, 2, 3, 4, 5, 6, 7 and 8 weeks after the application, the herbicidal efficacy of the active compounds or active compound mixtures was evaluated visually on the basis of the treated plots, in comparison with untreated control plots. The damage to and development of all above-ground parts of the plants were recorded. Evaluation was carried out using a percentage scale (100% effect=all plants killed; 50% effect=50% of the plants and the green parts of the plants killed; 0% effect=no noticeable effect=like control plot). The evaluation values of in each case 4 plots were averaged.

Asystasia intrusa = experiment: Field trial, herbicidal activity against Asystasia intrusa in rubber tree plantation; conditions: Asystasia intrusa, read-out: Activity (%), w. after appl., No. 2, dose 60 g of AS/ha
Method: as §1
In a rubber tree plantation, plots with the tropical weed Asystasia intrusa were grown under natural outdoor conditions (dimensions of the plots 2 x 5 m). The herbicides or their mixtures in a tank mix were applied under standard conditions (over-the-top application using a plot sprayer, water application rate 450 l/ha). In intervals of 4, 7, 13, 17 and 21 weeks after the application, the herbicidal efficacy of the active compounds or their mixtures was evaluated visually on the basis of the treated plots, in comparison with untreated control plots. The damage to and the development of all above-ground parts of the plants were recorded. Evaluation was carried out as described in Example 1.

Axonopus compressus = experiment: Field trial, herbicidal activity against Axonopus compressus in rubber tree plantation; conditions: Axonopus compressus, read-out: Activity (%), w. after appl., No. 2, dose 60 g of AS/ha
Method: as §1
In a rubber tree plantation, plots with the tropical weed Axonopus compressus were grown under natural outdoor conditions (plot dimensions 2×5 m). The herbicides or their mixtures in a tank mix were applied under standard conditions using a plot spayer at a water application rate of 450 liters of water per hectare (over-the-top application). At intervals of 4, 7, 13, 17 and 21 weeks after the application, the herbicidal efficacy of the active compounds or active compound mixtures was evaluated visually on the basis of the treated plots, in comparison with untreated control plots. The damage to and development of all above-ground parts of the plants were recorded. Evaluation was carried out as described in Example 1.

CP(=O)(O)CCC(N)C(=O)O (stereo not drawn) [A1.2, Glufosinate-monoammonium salt]
inhibition at 300 g/ha ([1]; 672 h, read-out: Herbicidal activity (%)): 72%
Weed coverage (%) ([1]; No. 2, dose 300 g of AS/ha, percent ground coverage, control plot has more than 95% weed coverage): 27%
inhibition at 25 g/ha (Hedyotis verticillata; 1 w. after appl.): 35%
inhibition at 25 g/ha (Hedyotis verticillata; 2 w. after appl.): 28%
inhibition at 25 g/ha (Hedyotis verticillata; 3 w. after appl.): 23%
inhibition at 25 g/ha (Hedyotis verticillata; 4 w. after appl.): 20%
inhibition at 25 g/ha (Hedyotis verticillata; 5 w. after appl.): 10%
inhibition at 25 g/ha (Hedyotis verticillata; 6 w. after appl.): 10%
inhibition at 25 g/ha (Hedyotis verticillata; 7 w. after appl.): 10%
inhibition at 25 g/ha (Hedyotis verticillata; 8 w. after appl.): 0%
inhibition at 50 g/ha (Hedyotis verticillata; 1 w. after appl.): 35%
inhibition at 50 g/ha (Hedyotis verticillata; 2 w. after appl.): 25%
inhibition at 50 g/ha (Hedyotis verticillata; 3 w. after appl.): 20%
inhibition at 50 g/ha (Hedyotis verticillata; 4 w. after appl.): 20%
inhibition at 50 g/ha (Hedyotis verticillata; 5 w. after appl.): 10%
inhibition at 50 g/ha (Hedyotis verticillata; 6 w. after appl.): 10%
inhibition at 50 g/ha (Hedyotis verticillata; 7 w. after appl.): 10%
inhibition at 50 g/ha (Hedyotis verticillata; 8 w. after appl.): 0%
inhibition at 80 g/ha (Hedyotis verticillata; 1 w. after appl.): 58%
inhibition at 80 g/ha (Hedyotis verticillata; 2 w. after appl.): 45%
inhibition at 80 g/ha (Hedyotis verticillata; 3 w. after appl.): 40%
inhibition at 80 g/ha (Hedyotis verticillata; 4 w. after appl.): 40%
inhibition at 80 g/ha (Hedyotis verticillata; 5 w. after appl.): 40%
inhibition at 80 g/ha (Hedyotis verticillata; 6 w. after appl.): 30%
inhibition at 80 g/ha (Hedyotis verticillata; 7 w. after appl.): 28%
inhibition at 80 g/ha (Hedyotis verticillata; 8 w. after appl.): 8%
inhibition at 60 g/ha (Asystasia intrusa; 4 w. after appl.): 23%
inhibition at 60 g/ha (Asystasia intrusa; 7 w. after appl.): 5%
inhibition at 60 g/ha (Asystasia intrusa; 13 w. after appl.): 0%
inhibition at 60 g/ha (Asystasia intrusa; 17 w. after appl.): 0%
inhibition at 60 g/ha (Asystasia intrusa; 21 w. after appl.): 0%
inhibition at 60 g/ha (Axonopus compressus; 4 w. after appl.): 17%
inhibition at 60 g/ha (Axonopus compressus; 7 w. after appl.): 10%
inhibition at 60 g/ha (Axonopus compressus; 13 w. after appl.): 0%
inhibition at 60 g/ha (Axonopus compressus; 17 w. after appl.): 0%
inhibition at 60 g/ha (Axonopus compressus; 21 w. after appl.): 0%
